Assay results taken from US6579855B1, “Adenovirus-mediated gene therapy” (priority 1998, dated 2003).

Assay: Clinical safety of gene transfer and GCV treatment (adverse effects, routine laboratory measurements)
Format: in vivo, human
Conditions: GCV 5 mg/kg/d intravenously, 14 days; only one patient, without symptoms
Description: All patients underwent craniotomy and tumour resection. The resection was as radical as possible under the microscope. The diagnosis of malignant glioma was confirmed by frozen sections at the time of the operation. After tumour resection, HSVtk retrovirus packaging cells (10^9 cells/10 ml) or adenoviruses (3×10^10 pfu/10 ml) were injected into the wall of the tumour cavity in 0.1-0.3 ml quantities, 10 mm deep, with 30-70 injections/patient. GCV treatment (5 mg/kg/d) was delivered intravenously through the subclavian vein twice a day for 14 days. The medication started 14 days or 5 days after the tumour resection and gene transfer in retrovirus or adenovirus patients, respectively. β-galactosidase gene was transferred to seven control group patients via a catheter which was stereotactically inserted into the tumour. The catheter was left in place until the tumour was resected in craniotomy. […]
Blood and urine samples were analyzed using routine methods before gene transfer, on the first postoperative day and weekly during hospitalization except for leucocyte differential count which was measured every second day during GCV medication. Anti-virus antibodies were measured before and two weeks after the gene transfer. […]

## Nc1nc(O)c2ncn(COC(CO)CO)c2n1 [GCV, ganciclovir]
  leukopenia during GCV treatment: mild and reversible leukopenia
